{
  "source": "patent US20220031607A1",
  "about": "“INJECTION COMPOSITION CONTAINING FAB I INHIBITOR, AND PREPARATION METHOD THEREFOR” (CRYSTALGENOMICS, INC., priority 2019, published 2022)",
  "type_in_all_cases": "cell-based",
  "key": {"[1]": {"tested_on": "Methicillin-resistant Staphylococcus aureus (MRSA) strains", "assay": "Drug susceptibility (MIC) of MRSA clinical isolates", "description": "(§1) In order to verify the inhibitory effect of the compound of formula 1 on antibiotic-resistant strains, drug susceptibility was evaluated by treating the compound of formula 1 with Staphylococcus aureus phenotype isolated from each patient. In an in vitro test for antibiotic development, the most important result can be MIC90 (minimum inhibitory concentration required to inhibit the growth of 90% of the total bacterial population). […] Appelbaum at Hershey Hospital who is recognized for its authority in the field of anti-infection worldwide."}, "[2]": {"tested_on": "Methicillin-susceptible Staphylococcus aureus strains", "assay": "Drug susceptibility (MIC) of methicillin-susceptible clinical isolates", "description": "as §1"}, "[3]": {"tested_on": "Staphylococcus aureus ATCC 29213 (MSSA, standard strain)", "assay": "Susceptibility test (MIC), standard strain", "description": "(§2) For the compound of formula 1, pharmacokinetic/pharmacodynamic experiments were conducted using a mouse infection model. To this end, experiments were conducted with Staphylococcus aureus ATCC 29213 (MSSA, standard strain) and 13B-382 (MRSA, clinical strain). As a medium, Mueller-Hinton broth or Cation-adjusted Mueller-Hinton broth was used. For the susceptibility test (minimum inhibitory concentration (MIC)), the compound of formula 1 was used."}, "[4]": {"tested_on": "Staphylococcus aureus 13B-382 (MRSA, clinical strain)", "assay": "Susceptibility test (MIC), clinical strain", "description": "as §2"}, "[5]": {"settings": "Methicillin-susceptible, n = 103"}, "[6]": {"settings": "Staphylococcus aureus, MRSA, Methicillin-resistant, n = 100, read-out: MIC50"}, "[7]": {"settings": "Staphylococcus aureus, MRSA, Methicillin-resistant, n = 100, read-out: MIC90"}, "[8]": {"settings": "Staphylococcus aureus, Methicillin-susceptible, n = 103, read-out: MIC50"}, "[9]": {"settings": "Staphylococcus aureus, Methicillin-susceptible, n = 103, read-out: MIC90"}},
  "note": "Read-outs that look alike come from different tables or passages of the source.",
  "data": [
    {"molecule": "Teicoplanin", "values": [
      {"measurement": "MIC50", "setting": "[1]; Methicillin-resistant, n = 100", "result": 1, "unit": "µg/mL"},
      {"measurement": "MIC90", "setting": "[1]; Methicillin-resistant, n = 100", "result": 2, "unit": "µg/mL"},
      {"measurement": "MIC50", "setting": "[2]; [5]", "result": 1, "unit": "µg/mL"},
      {"measurement": "MIC90", "setting": "[2]; [5]", "result": 2, "unit": "µg/mL"},
      {"measurement": "MIC Range", "setting": "[2]; [5]", "result": "0.125 to 8.0", "unit": "µg/mL"}
    ]},
    {"molecule": "Cc1onc(-c2ccccc2)c1C(=O)N[C@@H]1C(=O)N2[C@@H]1SC(C)(C)[C@@H]2C(=O)O", "note": "[Oxacillin]", "values": [
      {"measurement": "MIC", "setting": "[3]; Staphylococcus aureus ATCC 29213, read-out: MIC", "result": 0.25, "unit": "µg/mL"},
      {"measurement": "MIC", "setting": "[4]; Staphylococcus aureus 13B-382, read-out: MIC", "result": 16, "unit": "µg/mL"}
    ]},
    {"molecule": "CN[C@H](CC(C)C)C(=O)N[C@H]1C(=O)N[C@@H](CC(N)=O)C(=O)N[C@H]2C(=O)N[C@H]3C(=O)N[C@H](C(=O)N[C@H](C(=O)O)c4cc(O)cc(O)c4-c4cc3ccc4O)[C@H](O)c3ccc(c(Cl)c3)Oc3cc2cc(c3O[C@@H]2O[C@H](CO)[C@@H](O)[C@H](O)[C@H]2O[C@H]2C[C@](C)(N)[C@H](O)[C@H](C)O2)Oc2ccc(cc2Cl)[C@H]1O", "note": "[Vancomycin]", "values": [
      {"measurement": "MIC50", "setting": "[1]; Staphylococcus aureus, MRSA", "result": 1, "unit": "µg/mL"},
      {"measurement": "MIC90", "setting": "[1]; Staphylococcus aureus, MRSA", "result": 2, "unit": "µg/mL"},
      {"measurement": "MIC", "setting": "[1]; Staphylococcus aureus, MRSA / VRSA", "result": "> 64", "unit": "µg/mL"},
      {"measurement": "MIC Range", "setting": "[2]; [5]", "result": "1.0 to 2.0", "unit": "µg/mL"},
      {"measurement": "MIC50", "setting": "[2]; Staphylococcus aureus", "result": 1, "unit": "µg/mL"},
      {"measurement": "MIC90", "setting": "[2]; Staphylococcus aureus", "result": 2, "unit": "µg/mL"},
      {"measurement": "MIC", "setting": "[3]; Staphylococcus aureus", "result": 0.5, "unit": "µg/mL"},
      {"measurement": "MIC", "setting": "[4]; Staphylococcus aureus", "result": 1, "unit": "µg/mL"}
    ]},
    {"molecule": "CC[C@H]1OC(=O)[C@H](C)[C@@H](O[C@H]2C[C@@](C)(OC)[C@@H](O)[C@H](C)O2)[C@H](C)[C@@H](O[C@@H]2O[C@H](C)C[C@H](N(C)C)[C@H]2O)[C@](C)(O)C[C@@H](C)CN(C)[C@H](C)[C@@H](O)[C@]1(C)O", "note": "[Azithromycin]", "values": [
      {"measurement": "MIC50", "setting": "[1]; [6]", "result": "> 64", "unit": "µg/mL"},
      {"measurement": "MIC90", "setting": "[1]; [7]", "result": "> 64", "unit": "µg/mL"},
      {"measurement": "MIC50", "setting": "[2]; [8]", "result": 1, "unit": "µg/mL"},
      {"measurement": "MIC90", "setting": "[2]; [9]", "result": "> 64", "unit": "µg/mL"}
    ]},
    {"molecule": "C[C@H]1COc2c(N3CCN(C)CC3)c(F)cc3c(=O)c(C(=O)O)cn1c23", "note": "[Levofloxacin]", "values": [
      {"measurement": "MIC50", "setting": "[1]; [6]", "result": 1, "unit": "µg/mL"},
      {"measurement": "MIC90", "setting": "[1]; [7]", "result": "> 32", "unit": "µg/mL"},
      {"measurement": "MIC Range", "setting": "[2]; [5]", "result": "≤0.06 to 32.0", "unit": "µg/mL"},
      {"measurement": "MIC50", "setting": "[2]; [8]", "result": 0.25, "unit": "µg/mL"},
      {"measurement": "MIC90", "setting": "[2]; [9]", "result": 4, "unit": "µg/mL"}
    ]},
    {"molecule": "CCCCCCCCCC(=O)N[C@@H](Cc1c[nH]c2ccccc12)C(=O)N[C@H](CC(N)=O)C(=O)N[C@@H](CC(=O)O)C(=O)N[C@@H]1C(=O)NCC(=O)N[C@@H](CCCN)C(=O)N[C@@H](CC(=O)O)C(=O)N[C@H](C)C(=O)N[C@@H](CC(=O)O)C(=O)NCC(=O)N[C@H](CO)C(=O)N[C@@H]([C@H](C)CC(=O)O)C(=O)N[C@@H](CC(=O)c2ccccc2N)C(=O)O[C@@H]1C", "note": "[Daptomycin]", "values": [
      {"measurement": "MIC Range", "setting": "[1]; Methicillin-resistant, n = 100", "result": "0.25 to 4.0", "unit": "µg/mL"},
      {"measurement": "MIC50", "setting": "[1]; [6]", "result": 0.5, "unit": "µg/mL"},
      {"measurement": "MIC90", "setting": "[1]; [7]", "result": 0.5, "unit": "µg/mL"},
      {"measurement": "MIC Range", "setting": "[2]; [5]", "result": "0.25 to 2.0", "unit": "µg/mL"},
      {"measurement": "MIC50", "setting": "[2]; [8]", "result": 1, "unit": "µg/mL"},
      {"measurement": "MIC90", "setting": "[2]; [9]", "result": 1, "unit": "µg/mL"}
    ]},
    {"molecule": "CC(=O)NC[C@H]1CN(c2ccc(N3CCOCC3)c(F)c2)C(=O)O1", "note": "[Linezolid]", "values": [
      {"measurement": "MIC Range", "setting": "[1]; Methicillin-resistant, n = 100", "result": "0.25 to 2.0", "unit": "µg/mL"},
      {"measurement": "MIC50", "setting": "[1]; [6]", "result": 1, "unit": "µg/mL"},
      {"measurement": "MIC90", "setting": "[1]; [7]", "result": 2, "unit": "µg/mL"},
      {"measurement": "MIC Range", "setting": "[2]; [5]", "result": "0.25 to 2.0", "unit": "µg/mL"},
      {"measurement": "MIC50", "setting": "[2]; [8]", "result": 1, "unit": "µg/mL"},
      {"measurement": "MIC90", "setting": "[2]; [9]", "result": 2, "unit": "µg/mL"}
    ]}
  ]
}
